From article PMC6917776, “Discovery of a chemical probe for PRDM9” (Nature Communications, 2019)

Legend:
[1] = tested on: HCC1143; experiment: CelltiterGlo viability cell assay; assay type: cell-based
Description: (§1) Supplementary Figure 13. […] Viability of
(§2) (a) Multiple Myeloma lines and (b) Breast Cancer cell lines following 3 or 6 days treatment with […]
(§3) manufacturer’s instructions as described in the Supplementary methods. Data are normalized to DMSO control. N=3 biological replicates, +/- SEM. Source data are provided as a Source Data […]
(§4) CelltiterGlo viability cell assay
(§5) Cells were seeded in 96 well plates at per-well densities of 10000 (MDA-MB436, ATCC-HTB130), 15000 (8226, kind gift from Rodger Tiedemann, Princess Margaret Cancer Centre), […]
(§6) kind gift from Rodger Tiedemann, Princess Margaret Cancer Centre) and 50000 (CAL851, kind gift from Mathieu Lupien, Princess Margaret Cancer Centre) and were treated at increasing concentrations of compounds ranging from 0.01 μM to 30 μM and assessed for proliferation using CelltiterGlo (Promega) following manufacturer’s instructions, as readout on days 3 and 6 as indicated. All cell lines were mycoplasma negative, as determined by MycoAlert™ Mycoplasma Detection Kit(Lonza). […]

[2] = tested on: HCC1806; experiment: CelltiterGlo viability cell assay; assay type: cell-based; conditions: HCC1806, 3 day
Description: as §1, §2, §3, §4, §5, §6

COc1cc(OC)cc(-c2noc(N3CCN(C)C4(CCN(c5ccccc5)CC4)C3)n2)c1 [MRK-740N]
viability Average ([1]; HCC1143, 3 day, 0.01 uM): 99.63 | viability Replicate 1 ([1]; HCC1143, 3 day, 0.01 uM): 94.06 | viability Replicate 2 ([1]; HCC1143, 3 day, 0.01 uM): 105.87 | viability Replicate 3 ([1]; HCC1143, 3 day, 0.01 uM): 98.96 | viability Average ([1]; HCC1143, 3 day, 0.03 uM): 100.04 | viability Replicate 1 ([1]; HCC1143, 3 day, 0.03 uM): 98.98 | viability Replicate 2 ([1]; HCC1143, 3 day, 0.03 uM): 103.01 | viability Replicate 3 ([1]; HCC1143, 3 day, 0.03 uM): 98.14 | viability Average ([1]; HCC1143, 3 day, 0.1 uM): 100.66 | viability Replicate 1 ([1]; HCC1143, 3 day, 0.1 uM): 94.28 | viability Replicate 2 ([1]; HCC1143, 3 day, 0.1 uM): 108.89 | viability Replicate 3 ([1]; HCC1143, 3 day, 0.1 uM): 98.81 | viability Average ([1]; HCC1143, 3 day, 0.3 uM): 101.81 | viability Replicate 1 ([1]; HCC1143, 3 day, 0.3 uM): 94.36 | viability Replicate 2 ([1]; HCC1143, 3 day, 0.3 uM): 110.71 | viability Replicate 3 ([1]; HCC1143, 3 day, 0.3 uM): 100.36 | viability Average ([1]; HCC1143, 3 day, 1 uM): 102.28 | viability Replicate 1 ([1]; HCC1143, 3 day, 1 uM): 95.62 | viability Replicate 2 ([1]; HCC1143, 3 day, 1 uM): 111.25 | viability Replicate 3 ([1]; HCC1143, 3 day, 1 uM): 99.98 | viability Average ([1]; HCC1143, 3 day, 3 uM): 102.58 | viability Replicate 1 ([1]; HCC1143, 3 day, 3 uM): 95.70 | viability Replicate 2 ([1]; HCC1143, 3 day, 3 uM): 110.25 | viability Replicate 3 ([1]; HCC1143, 3 day, 3 uM): 101.79 | viability Average ([1]; HCC1143, 3 day, 9.5 uM): 96.93 | viability Replicate 1 ([1]; HCC1143, 3 day, 9.5 uM): 91.87 | viability Replicate 2 ([1]; HCC1143, 3 day, 9.5 uM): 108.74 | viability Replicate 3 ([1]; HCC1143, 3 day, 9.5 uM): 90.19 | viability Average ([1]; HCC1143, 3 day, 30 uM): 42.44 | viability Replicate 1 ([1]; HCC1143, 3 day, 30 uM): 41.34 | viability Replicate 2 ([1]; HCC1143, 3 day, 30 uM): 45.73 | viability Replicate 3 ([1]; HCC1143, 3 day, 30 uM): 40.25 | viability Average ([1]; HCC1143, 6 day, 0.03 uM): 106.15 | viability Replicate 1 ([1]; HCC1143, 6 day, 0.03 uM): 104.58 | viability Replicate 2 ([1]; HCC1143, 6 day, 0.03 uM): 106.98 | viability Replicate 3 ([1]; HCC1143, 6 day, 0.03 uM): 106.88 | viability Average ([1]; HCC1143, 6 day, 0.1 uM): 106.29 | viability Replicate 1 ([1]; HCC1143, 6 day, 0.1 uM): 110.44 | viability Replicate 2 ([1]; HCC1143, 6 day, 0.1 uM): 106.94 | viability Replicate 3 ([1]; HCC1143, 6 day, 0.1 uM): 101.48 | viability Average ([1]; HCC1143, 6 day, 0.3 uM): 109.27 | viability Replicate 1 ([1]; HCC1143, 6 day, 0.3 uM): 115.47 | viability Replicate 2 ([1]; HCC1143, 6 day, 0.3 uM): 108.44 | viability Replicate 3 ([1]; HCC1143, 6 day, 0.3 uM): 103.89 | viability Average ([1]; HCC1143, 6 day, 1 uM): 112.12 | viability Replicate 1 ([1]; HCC1143, 6 day, 1 uM): 119.58 | viability Replicate 2 ([1]; HCC1143, 6 day, 1 uM): 108.44 | viability Replicate 3 ([1]; HCC1143, 6 day, 1 uM): 108.34 | viability Average ([1]; HCC1143, 6 day, 3 uM): 118.66 | viability Replicate 1 ([1]; HCC1143, 6 day, 3 uM): 128.58 | viability Replicate 2 ([1]; HCC1143, 6 day, 3 uM): 111.85 | viability Replicate 3 ([1]; HCC1143, 6 day, 3 uM): 115.55 | viability Average ([1]; HCC1143, 6 day, 9.5 uM): 112.33 | viability Replicate 1 ([1]; HCC1143, 6 day, 9.5 uM): 117.62 | viability Replicate 2 ([1]; HCC1143, 6 day, 9.5 uM): 107.90 | viability Replicate 3 ([1]; HCC1143, 6 day, 9.5 uM): 111.46 | viability Average ([1]; HCC1143, 6 day, 30 uM): 53.32 | viability Replicate 1 ([1]; HCC1143, 6 day, 30 uM): 56.13 | viability Replicate 2 ([1]; HCC1143, 6 day, 30 uM): 63.79 | viability Replicate 3 ([1]; HCC1143, 6 day, 30 uM): 40.04 | viability Average ([2]; 0.01 uM): 114.56 | viability Replicate 1 ([2]; 0.01 uM): 108.66 | viability Replicate 2 ([2]; 0.01 uM): 106.14 | viability Replicate 3 ([2]; 0.01 uM): 128.88 | viability Average ([2]; 0.03 uM): 112.72 | viability Replicate 1 ([2]; 0.03 uM): 107.72 | viability Replicate 2 ([2]; 0.03 uM): 100.89 | viability Replicate 3 ([2]; 0.03 uM): 129.55 | viability Average ([2]; 0.1 uM): 114.82 | viability Replicate 1 ([2]; 0.1 uM): 110.69 | viability Replicate 2 ([2]; 0.1 uM): 103.88 | viability Replicate 3 ([2]; 0.1 uM): 129.88 | viability Average ([2]; 0.3 uM): 114.56 | viability Replicate 1 ([2]; 0.3 uM): 110.72 | viability Replicate 2 ([2]; 0.3 uM): 101.60 | viability Replicate 3 ([2]; 0.3 uM): 131.35 | viability Average ([2]; 1 uM): 117.58 | viability Replicate 1 ([2]; 1 uM): 111.18 | viability Replicate 2 ([2]; 1 uM): 107.64 | viability Replicate 3 ([2]; 1 uM): 133.91 | viability Average ([2]; 3 uM): 114.75 | viability Replicate 1 ([2]; 3 uM): 110.32 | viability Replicate 2 ([2]; 3 uM): 101.81 | viability Replicate 3 ([2]; 3 uM): 132.12 | viability Average ([2]; 9.5 uM): 100.22 | viability Replicate 1 ([2]; 9.5 uM): 94.76 | viability Replicate 2 ([2]; 9.5 uM): 91.96 | viability Replicate 3 ([2]; 9.5 uM): 113.95 | viability Average ([2]; 30 uM): 31.36 | viability Replicate 1 ([2]; 30 uM): 29.97 | viability Replicate 2 ([2]; 30 uM): 27.69 | viability Replicate 3 ([2]; 30 uM): 36.41
